Test results taken from US20130072534A1 (LABORATORIOS DEL DR. ESTEVE, S.A., priority 2009, published 2013).

Test system: formalin-induced nociceptive behaviour
Experiment: Formalin test in mice (phase II licking/biting of the injected paw)
Format: in vivo, Male CD-1 mice
Details: i.p.; for efficacy of analgesic effect (in words): formalin test
Experimental: To assess the reliability of the efficacy and potency of the compounds and combinations tested, the nociceptive response was assessed by the formalin test. The behaviour analysed was the total time spent in licking and biting of the injected paw measured during the 15-30 min period (phase II) (Dubuisson D., et al. Pain 1977, 4, 161 and Rosland et al., Pain 1990, 42, 235).
All drugs prepared at various concentrations were dissolved in 0.5% hydroxypropyl methylcellulose in distilled water and coadministered in a volume of 10 ml/kg per mice through the intraperitoneal (i.p.) route. Control animals received the same volume of vehicle.
Male CD-1 mice weighing between 20 and 25 g (Charles River Laboratories) are used for all the experiments. The animals were housed in a temperature-controlled room (21±1° C.) with air exchange every 20 min and an automatic 12-h light/dark cycle (light from 08.00 to 20.00 h). They were fed a standard laboratory diet and tap water ad libitum until the beginning of the experiments. The experiments were performed during the light phase (09.00-15.00 h). Naive animals were used throughout.
A concentrated formalin solution was diluted with saline to the appropriate concentration (2.5%). Formalin test was performed as described in Rosland et al., Pain 1990, 42, 235, with slight modifications. 20 microliters of the formalin solution was injected subcutaneously (s.c.) into the dorsal surface of the right hind paw of the mouse, using a Hamilton microsyringe with a 301/2-gauge needle. The nociceptive behaviour (licking and/or biting) was recorded from 15 to 35 min after formalin injection as an indicator of the pain response.
The method is based on the comparison of the effect of several doses of a combination at a determined ratio with respect to the effects achieved using different doses of each of the two agents. […] The theoretical additive dose (Zadd) for a combination was then calculated and compared with the experimental ED50 of the combination (Zt) as described in Tallarida, Drug synergism 2001, 298, 865-872. […]

| Compound | efficacy of analgesic effect (in words) | maximum efficacy (analgesic effect) (formalin test (2.5% formalin s.c. into hind paw)) [%] |
| --- | --- | --- |
| COc1ccc(C(CN(C)C)C2(O)CCCCC2)cc1 (racemic) [Venlafaxine, (rac)-1-[2-dimethylamino-1-(4-methoxyphenyl)-ethyl]cyclohexanol] | full efficacy | – |
| Cc1ccc(-c2cc(C(F)(F)F)nn2-c2ccc(S(N)(=O)=O)cc2)cc1 [celecoxib, 4-[5-(4-methylphenyl)-3-(trifluoromethyl)pyrazol-1-yl]benzenesulfonamide] | ceiling effect | 45.78 |
